Structures are written as SMILES.

For test [1], the target named is T1, cyclin E/CDK2 enzyme (Homo sapiens, UniProt P24941).
T1 construct: made in house; host or cells: Sf9 insect cells, recombinant baculovirus
Nature of the test: CDK2 ELISA kinase assay (phospho-Rb ser 795 detection). The format is biochemical. The following applies: In Vitro Enzyme Assay, cyclin E/CDK2, read-out: CDK2 IC50. In outline: (§1)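 GST-Rb C-terminal fragment coated on wells; kinase reaction: 200 μM ATP, 0.5 mg/ml BSA, HEPES pH 7.5, 10 mM MgCl2, baculovirus/Sf9 cyclin-CDK, 30° C, 1 h. Readout anti-phospho-Rb Ser795, HRP, TMB, A450. Test compound 10 ug/ml final.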

Test [2] has as its target T2, cyclin B/CDK1 enzyme (Homo sapiens, UniProt P06493).
T2 construct: purchased New England BioLabs; host or cells: Sf9 insect cells, recombinant baculovirus
In words: CDK1 ELISA kinase assay (phospho-Rb ser 795 detection). The format is biochemical. The settings on record: In Vitro Enzyme Assay, cyclin B/CDK1, read-out: CDK1 IC50. The method, boiled down: as §1

The test system of test [3] is LoVo. Nature of the test: Cytotoxicity assay (SRB), LoVo. The format is cell-based. The following applies: Homo sapiens, LoVo, 72 h, LoVo cells, 3 days, SRB; read-out: In Vitro Cellular Activity IC50 LOVO. The method, boiled down: (§2)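 Protein staining with sulforhodamine B after cold TCA fixation served as the survival endpoint (A540, relative to untreated cells). Before staining, cells were incubated with compound at 37 °C, 7% CO2 for 3 days, or 6 days for BT474.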

The target of test [4] is T3, cyclin D1/cdk 4 enzyme (Homo sapiens, UniProt P11802).
T3 construct: made in house; host or cells: Sf9 insect cells, recombinant baculovirus
Nature of the test: CDK4 ELISA kinase assay (phospho-Rb ser 795 detection). The format is biochemical. The settings on record: In Vitro Enzyme Assay, cyclin D1/cdk 4, read-out: CDK4 IC50. In outline: as §1

Test [5] concerns HCT-116. In words: Cytotoxicity assay (SRB), HCT-116. The format is cell-based. The settings on record: Homo sapiens, HCT-116, 72 h, HCT116 cells, 3 days, SRB; read-out: In Vitro Cellular Activity IC50 HCT116. The method, boiled down: as §2
Test [6] concerns MCF-7. In words: Cytotoxicity assay (SRB), MCF-7. The format is cell-based. The settings on record: Homo sapiens, MCF7, 72 h, MCF-7 cells, 3 days, SRB; read-out: In Vitro Cellular Activity IC50 MCF-7. The method, boiled down:
as §2

Test [7] deals with BT474. In words: Cytotoxicity assay (SRB), BT474. The format is cell-based. The settings on record: Homo sapiens, BT-474, 144 h, BT474 cells, 6 days, SRB; read-out: In Vitro Cellular Activity IC50 BT474. The method, boiled down: as §2

T3 sequence (P11802 whole entry, species assumed): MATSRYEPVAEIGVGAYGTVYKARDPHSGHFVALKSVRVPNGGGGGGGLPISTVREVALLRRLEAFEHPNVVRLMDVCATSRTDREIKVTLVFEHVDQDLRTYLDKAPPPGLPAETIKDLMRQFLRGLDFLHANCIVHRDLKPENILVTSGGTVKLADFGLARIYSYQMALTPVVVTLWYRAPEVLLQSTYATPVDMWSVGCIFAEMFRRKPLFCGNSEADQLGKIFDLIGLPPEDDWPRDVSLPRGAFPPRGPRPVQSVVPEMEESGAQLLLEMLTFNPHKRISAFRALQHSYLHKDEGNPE
T3 sequence (P24385 whole entry partner, species assumed): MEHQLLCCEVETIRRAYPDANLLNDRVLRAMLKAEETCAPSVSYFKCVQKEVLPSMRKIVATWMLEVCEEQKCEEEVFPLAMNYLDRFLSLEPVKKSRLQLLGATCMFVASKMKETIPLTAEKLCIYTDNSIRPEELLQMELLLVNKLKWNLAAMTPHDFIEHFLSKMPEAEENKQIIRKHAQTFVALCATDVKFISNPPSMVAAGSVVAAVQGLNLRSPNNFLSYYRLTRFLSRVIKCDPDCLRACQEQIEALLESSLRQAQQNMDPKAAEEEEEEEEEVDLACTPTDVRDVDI
T2 sequence (P06493 whole entry): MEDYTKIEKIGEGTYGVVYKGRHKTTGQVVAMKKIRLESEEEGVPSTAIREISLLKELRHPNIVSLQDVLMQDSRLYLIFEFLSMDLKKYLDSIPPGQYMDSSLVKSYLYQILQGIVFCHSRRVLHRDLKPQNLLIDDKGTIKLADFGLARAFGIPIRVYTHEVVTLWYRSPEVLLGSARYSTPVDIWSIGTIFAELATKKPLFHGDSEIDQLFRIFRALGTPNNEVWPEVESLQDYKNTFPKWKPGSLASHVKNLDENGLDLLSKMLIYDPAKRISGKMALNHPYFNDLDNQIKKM
T2 sequence (P14635 whole entry partner): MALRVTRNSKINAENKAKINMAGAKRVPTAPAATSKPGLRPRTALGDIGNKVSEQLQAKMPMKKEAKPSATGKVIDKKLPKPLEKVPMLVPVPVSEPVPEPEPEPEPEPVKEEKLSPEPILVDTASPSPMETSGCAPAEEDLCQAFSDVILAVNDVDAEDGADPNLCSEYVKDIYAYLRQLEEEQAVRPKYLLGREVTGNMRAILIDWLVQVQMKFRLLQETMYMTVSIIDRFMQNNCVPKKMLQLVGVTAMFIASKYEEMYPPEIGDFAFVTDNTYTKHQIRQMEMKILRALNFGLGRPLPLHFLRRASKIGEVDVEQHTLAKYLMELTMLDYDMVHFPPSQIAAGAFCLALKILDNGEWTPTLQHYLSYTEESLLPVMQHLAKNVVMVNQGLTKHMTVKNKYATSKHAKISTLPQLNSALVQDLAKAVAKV

On to `NS(=O)(=O)c1ccc(CNC=C2C(=O)NC(=O)c3ccc(-c4cccc(F)c4)cc32)cc1` [Example 739, 4-({[6-(3-Fluoro-phenyl)-1,3-dioxo-2,3-dihydro-1H-isoquinolin-4-ylidenemethyl]-amino}-methyl)-benzenesulfonamide], for which the IC50 in test [1] was over 50 µM; in test [2], 30.3 µM; in test [3], over 50 µM; in test [4] it was 1.77 µM; in test [5], 26.4 µM; in test [6] it was 17.1 µM. Moreover, in test [7], the IC50 amounted to 32.8 µM.
On to `NS(=O)(=O)c1ccc(CNC=C2C(=O)NC(=O)c3ccc(-c4ccccc4F)cc32)cc1` [Example 740, 4-({[6-(2-Fluoro-phenyl)-1,3-dioxo-2,3-dihydro-1H-isoquinolin-4-ylidenemethyl]-amino}-methyl)-benzenesulfonamide], for which the IC50 came to 3.7 µM in test [1]; 13.5 µM in test [2]; 10 µM in test [3]; 1.81 µM in test [4]; 7.7 µM in test [5]; 8.3 µM in test [6]. For the same molecule, the concentration for half-maximal inhibition (IC50) in test [7] is 9.7 µM.
For `NS(=O)(=O)c1ccc(CNC=C2C(=O)NC(=O)c3ccc(-c4ccc(Cl)cc4)cc32)cc1` [Example 749, 4-({[6-(4-Chloro-phenyl)-1,3-dioxo-2,3-dihydro-1H-isoquinolin-4-ylidenemethyl]-amino}-methyl)-benzenesulfonamide], the half-inhibitory concentration (IC50) was 8 µM in test [1]; 38.8 µM in test [2]; 47.2 µM in test [3]; 1.48 µM in test [4]; 20.9 µM in test [5]; 14.1 µM in test [6]. In addition, in test [7], the half-maximal inhibitory concentration (IC50) was over 50 µM.
As to `COc1ccc(-c2ccc3c(c2)C(=CNCc2ccc(O)c(O)c2)C(=O)NC3=O)cc1` [Example 764, 4-[(3,4-Dihydroxy-benzylamino)-methylene]-6-(4-methoxy-phenyl)-4H-isoquinoline-1,3-dione], the concentration for half-maximal inhibition (IC50) in test [1] amounted to 7.3 µM; in test [2] it was 16.5 µM; in test [3], 8.6 µM; in test [4], 0.06 µM; in test [5], 9.3 µM; in test [6], 10.3 µM. Moreover, in test [7], the IC50 is 23.1 µM.
For the molecule `COc1cccc(-c2ccc3c(c2)C(=CNCc2ccc(O)c(O)c2)C(=O)NC3=O)c1` [Example 765, 4-[(3,4-Dihydroxy-benzylamino)-methylene]-6-(3-methoxy-phenyl)-4H-isoquinoline-1,3-dione], the IC50 was determined as 11.5 µM in test [1]; 21.1 µM in test [2]; 18.3 µM in test [3]; 0.27 µM in test [4]; 15.8 µM in test [5]; 14.4 µM in test [6]. Moreover, the half-inhibitory concentration (IC50) in test [7] is 33.4 µM.
Turning to `COc1ccccc1-c1ccc2c(c1)C(=CNCc1ccc(O)c(O)c1)C(=O)NC2=O` [Example 766, 4-[(3,4-Dihydroxy-benzylamino)-methylene]-6-(2-methoxy-phenyl)-4H-isoquinoline-1,3-dione], the half-maximal inhibitory concentration (IC50) in test [1] came to 14.4 µM; in test [2] it was 43.4 µM; in test [3] it was 32.3 µM; in test [4], 1.29 µM; in test [5] it was 21.6 µM; in test [6], 22.1 µM. For the same molecule, the IC50 in test [7] came to 33.9 µM.
As for `O=C1NC(=O)c2ccc(-c3ccc(F)cc3)cc2C1=CNCc1ccc(O)c(O)c1` [Example 767, 4-[(3,4-Dihydroxy-benzylamino)-methylene]-6-(4-fluoro-phenyl)-4H-isoquinoline-1,3-dione], the IC50 is 9 µM in test [1]; 15.4 µM in test [2]; 21.4 µM in test [3]; 0.17 µM in test [4]; 25.9 µM in test [5]; 25.2 µM in test [6]. Further, in test [7], the half-maximal inhibitory concentration (IC50) came to 44 µM.
In the case of `O=C1NC(=O)c2ccc(-c3cccc(F)c3)cc2C1=CNCc1ccc(O)c(O)c1` [Example 768, 4-[(3,4-Dihydroxy-benzylamino)-methylene]-6-(3-fluoro-phenyl)-4H-isoquinoline-1,3-dione], the IC50 in test [1] was 9.6 µM; in test [2], 20.6 µM; in test [3], 25.7 µM; in test [4] it was 0.55 µM; in test [5], 27.4 µM; in test [6], 28.4 µM. Moreover, the IC50 in test [7] turned out to be 29.1 µM.
Consider `O=C1NC(=O)c2ccc(-c3ccccc3F)cc2C1=CNCc1ccc(O)c(O)c1` [Example 769, 4-[(3,4-Dihydroxy-benzylamino)-methylene]-6-(2-fluoro-phenyl)-4H-isoquinoline-3,3-dione], for which the IC50 came out at 3.9 µM in test [1]; 14.7 µM in test [2]; 15.5 µM in test [3]; 0.03 µM in test [4]; 13.4 µM in test [5]; 17.9 µM in test [6]. Moreover, the IC50 in test [7] came out at 17.9 µM.
Consider `O=C1NC(=O)c2ccc(-c3cccc(C(=O)O)c3)cc2C1=CNCc1ccc(O)c(O)c1` [Example 771, 3-{4-[(3,4-Dihydroxy-benzylamino)-methylene]-1,3-dioxo-1,2,3,4-tetrahydro-isoquinolin-6-yl}-benzoic acid], for which the IC50 in test [1] is 10 µM; in test [2], 26.5 µM; in test [3], 48 µM; in test [4], 0.82 µM; in test [5], 39.5 µM; in test [6] it was over 50 µM. The IC50 in test [7] is 33.3 µM.
For the molecule `O=C1NC(=O)c2ccc(-c3ccc(C(F)(F)F)cc3)cc2C1=CNCc1ccc(O)c(O)c1` [Example 772, 4-[(3,4-Dihydroxy-benzylamino)-methylene]-6-(4-trifluoromethyl-phenyl)-4H-isoquinoline-1,3-dione], the 50% inhibitory concentration (IC50) in test [1] came out at 10.7 µM; in test [2], 40.6 µM; in test [3] it was 15.4 µM; in test [4] it was 0.51 µM; in test [5] it was 15.6 µM; in test [6] it was 12.2 µM. For the same molecule, the IC50 in test [7] is 28.1 µM.
As for `O=C1NC(=O)c2ccc(-c3cccc(C(F)(F)F)c3)cc2C1=CNCc1ccc(O)c(O)c1` [Example 773, 4-[(3,4-Dihydroxy-benzylamino)-methylene]-6-(3-trifluoromethyl-phenyl)-4H-isoquinoline-1,3-dione], the half-maximal inhibitory concentration (IC50) in test [1] is 16.5 µM; in test [2] it was over 50 µM; in test [3] it was 14.4 µM; in test [4], 1.18 µM; in test [5] it was 13.7 µM; in test [6] it was 12.6 µM. Further, the half-inhibitory concentration (IC50) in test [7] stood at 20.9 µM.
Consider `CC(=O)c1cccc(-c2ccc3c(c2)C(=CNCc2ccc(O)c(O)c2)C(=O)NC3=O)c1` [Example 776, 6-(3-Acetyl-phenyl)-4-[(3,4-dihydroxy-benzylamino)-methylene]-4H-isoquinoline-1,3-dione], for which the IC50 is 13.8 µM in test [1]; over 50 µM in test [2]; 10.3 µM in test [3]; 0.24 µM in test [4]; 15.2 µM in test [5]; 11.2 µM in test [6]. The IC50 in test [7] stood at 17.2 µM.
As to `O=C1NC(=O)c2ccc(-c3ccc(Cl)cc3)cc2C1=CNCc1ccc(O)c(O)c1` [Example 778, 6-(4-Chloro-phenyl)-4-[(3,4-dihydroxy-benzylamino)-methylene]-4H-isoquinoline-1,3-dione], the half-maximal inhibitory concentration (IC50) was found to be 5.6 µM in test [1]; 27.7 µM in test [2]; 9.6 µM in test [3]; 0.12 µM in test [4]; 11.9 µM in test [5]; 10.3 µM in test [6]. Besides, the IC50 in test [7] came out at 27.3 µM.
Consider `O=C1NC(=O)c2ccc(-c3cccc(Cl)c3)cc2C1=CNCc1ccc(O)c(O)c1` [Example 779, 6-(3-Chloro-phenyl)-4-[(3,4-dihydroxy-benzylamino)-methylene]-4H-isoquinoline-1,3-dione], for which the half-maximal inhibitory concentration (IC50) in test [1] was 31.1 µM; in test [2] it was over 50 µM; in test [3], 14.1 µM; in test [4], 0.74 µM; in test [5] it was 15 µM; in test [6], 12.7 µM. Further, the IC50 in test [7] came out at 20.3 µM.
In the case of `O=C1NC(=O)c2ccc(-c3ccccc3Cl)cc2C1=CNCc1ccc(O)c(O)c1` [Example 780, 6-(2-Chloro-phenyl)-4-[(3,4-dihydroxy-benzylamino)-methylene]-4H-isoquinoline-1,3-dione], the IC50 in test [1] came to 3.8 µM; in test [2] it was 23.1 µM; in test [3], 18.2 µM; in test [4], 0.67 µM; in test [5], 14.4 µM; in test [6] it was 18.9 µM. Further, the IC50 in test [7] came to 17.7 µM.
